System: PMA-induced release of TGFα from PC3 cells
Test: ELISA-based TGFα release assay, PMA-stimulated PC3 cells
Assay type: cell-based
Details: Homo sapiens, PC-3; recombinant murine antibodies 1 μg/ml; Batimastat 10 μM; PMA 25 ng/ml, 2 hours
Experimental: In the following study, ELISA-based TGFα release assays were performed to analyze the inhibitory effects of the antibodies of the present disclosure on PMA-induced release of endogenous TGFα from human PC3 prostate cancer cells.
In brief, on day 1, Nunc black MaxiSorp® 96-well plates (Thermo Fisher Scientific, USA) were coated overnight with 100 μl per well of goat anti-human TGFα capture antibody (provided as part of the DuoSet ELISA kit) at 0.4 μg/ml TBS at 4° C. On day 2, the capture antibody solution was removed and MaxiSorp® plates were blocked with 300 μl per well of TBS, 1% BSA at room temperature for 3 hours. […] Using an infinite M1000 (Tecan Group, Switzerland) microplate reader, the fluorescence of each well was collected at an excitation wavelength of 435 nm and an emission wavelength of 555 nm.

## CNC(=O)[C@H](Cc1ccccc1)NC(=O)[C@H](CC(C)C)[C@H](CSc1cccs1)C(=O)NO [Batimastat]
  inhibition at 10 µM: 99.1%

— patent US20240174744A1, “METHODS OF TREATMENT USING PROTEIN BINDERS TO IRHOM2 EPITOPES” (SCIRHOM GMBH, priority 2021, published 2024)
